Entries after “also recorded” stand apart in the source; their conditions may differ. Where two headings read alike, the source gives them in different places.
Experiments:
[1] = test system: individuals with DMD; conditions: cited from earlier work; for muscle function and strength in individuals with DMD: humans with DMD
[2] = test system: myasthenia gravis; conditions: compared to prednisone; cited from earlier work
[3] = test system: gene expression in peripheral blood; experiment: Whole genome microarray of peripheral whole blood RNA, DMD administered deflazacort vs DMD administered prednisone; assay type: in vivo, human
Description: (§1) Of the 34 individuals with DMD, 14 were administered either prednisone (PRED, n=6) or deflazacort, an oxazoline derivative of prednisolone (DEFL, n=8) at the time blood samples for gene expression evaluation were obtained. The mean duration of administration of either prednisone or deflazacort for these 14 individuals was 43.9 months. Of the 34 individuals with DMD, 20 individuals had not been administered either prednisone or deflazacort at the time blood samples for gene expression evaluation were obtained.
(§2) Sample processing and array hybridization, probe-level data analysis, and statistical analysis were identical to Example 1.

[4] = test system: gene expression in peripheral blood; experiment: Whole genome microarray of peripheral whole blood RNA, DMD administered prednisone or deflazacort vs DMD not administered steroid; assay type: in vivo, human; conditions: for KFL10 expression: individuals administered prednisone, deflazacort, or both vs DMD not administered any agent; for KFL10 expression / CD163 nucleic acid expression / FKBP5 expression / expression of genes in the chondroitin sulfate biosynthesis pathway / haptoglobin nucleic acid expression / lactotransferrin expression / lipocalin expression: blood; for CD163 nucleic acid expression / FKBP5 expression / expression of genes in the chondroitin sulfate biosynthesis pathway / haptoglobin nucleic acid expression / lactotransferrin expression / lipocalin expression: pooled deflazacort or prednisone group vs DMD not administered; for genes with significantly different expression: pooled group administered either prednisone or deflazacort vs DMD not administered, fold change >|1.5|, unpaired t-test, p<=0.05; for genes with down-regulated expression levels / genes with up-regulated expression levels: pooled prednisone or deflazacort group vs DMD not administered, of the 524 genes
Description: Individuals with DMD were evaluated and had been diagnosed by a single board-certified pediatric neurologist. The diagnosis of DMD was based in part upon clinical history, examination findings, and selected muscle biopsies and was confirmed by molecular diagnostic testing.
as §1, §2

[5] = test system: mdx mouse; conditions: cited from earlier work; for muscle strength: dystrophin deficient mdx mice
[6] = test system: dystrophin deficient Caenorhabditis elegans; conditions: dystrophin deficient C. elegans; cited from earlier work
[7] = DMD individuals receiving deflazacort
[8] = deflazacort compared to prednisone, of the 508 genes
[9] = individuals with DMD administered prednisone, blood

SMILES	muscle function and strength in individuals with DMD [1]	KFL10 expression [4]	CD163 nucleic acid expression [4]	FKBP5 expression [4]	expression of genes in the chondroitin sulfate biosynthesis pathway [4]	haptoglobin nucleic acid expression [4]	lactotransferrin expression [4]	lipocalin expression [4]	genes with significantly different expression [4]	genes with down-regulated expression levels [4]	genes with up-regulated expression levels [4]	muscle strength [5]	CD-11 inflammatory cells in mdx muscle [5]	muscle degeneration [6]	further results
Cn1cnc([N+](=O)[O-])c1Sc1ncnc2nc[nH]c12 [azathioprine]	does not improve DMD; also recorded: no improvement	–	–	–	–	–	–	–	–	–	–	–	–	–	immunosuppressant effectiveness [2]: less effective immunosuppressant
CC(=O)OCC(=O)[C@@]12N=C(C)O[C@@H]1C[C@H]1[C@@H]3CCC4=CC(=O)C=C[C@]4(C)[C@H]3[C@@H](O)C[C@@]12C [deflazacort]	improved muscle function and strength	up-regulated	up-regulated expression levels	up-regulated expression levels	up-regulated expression levels	up-regulated expression levels	increased expression levels	increased expression levels	524 genes	127 genes	397 genes	–	–	–	side effects [1, 7]: fewer side effects; weight gain [1, 7]: less weight gain; genes significantly different ([3]; DMD administered deflazacort compared to DMD administered prednisone, fold change >=|1.5|, unpaired t-test, p<=0.05, peripheral blood): 508 genes; changes in gene expression ([3]; deflazacort compared to prednisone): fewer changes in gene expression; expression of retinoic acid receptor a (RARa) ([3]; deflazacort compared to prednisone, blood): significantly up-regulated; genes significantly down-regulated [3, 8]: 478 genes; genes significantly up-regulated [3, 8]: 30 genes
C[C@]12C=CC(=O)C=C1CC[C@@H]1[C@@H]2[C@@H](O)C[C@@]2(C)[C@H]1CC[C@]2(O)C(=O)CO [prednisolone]	improve function	–	–	–	–	–	–	–	–	–	–	improve muscle strength	decrease	reduce muscle degeneration	–
C[C@]12C=CC(=O)C=C1CC[C@@H]1[C@@H]2C(=O)C[C@@]2(C)[C@H]1CC[C@]2(O)C(=O)CO [prednisone]	improved muscle function and strength	up-regulated	up-regulated expression levels	up-regulated expression levels	up-regulated expression levels	up-regulated expression levels	increased expression levels	increased expression levels	524 genes	127 genes	397 genes	improve muscle strength	decrease	reduce muscle degeneration	muscle function and strength in individuals with DMD ([1]; listed as Prednisone): improve function; interleukin 1 beta expression [3, 9]: up-regulated; interleukin 1 receptor antagonist expression [3, 9]: up-regulated; interleukin 6 receptor expression [3, 9]: up-regulated; expression of genes related to lipid metabolism, particularly in adipose tissue ([3]; prednisone compared to deflazacort, blood): up-regulated; KFL10 expression in the mdx mouse ([5]; following six weeks of prednisone administration): up-regulated

Reference: patent US20100105054A1, “GENE EXPRESSION IN DUCHENNE MUSCULAR DYSTROPHY” (CINCINNATI CHILDREN'S HOSPITAL MEDICAL CENTER, priority 2008, published 2010)
